In patent US7049071B2, “Detection of DNA damaging agents” (University of Manchester Institute of Science and Technology, priority 1997, dated 2006):
Values joined by “and” are separate entries in the source; they are usually repeats but may differ in a detail not shown here. Equal entries are not always repeated.

Columns and labels:
Assay type in all cases: cell-based, Saccharomyces cerevisiae
[1] = tested on: RAD54 promoter; assay: Specificity experiment: GFP reporter induction by agents that delay mitosis; conditions: transformed cells; concentration that inhibited cell growth to a similar extent to the MMS treatment regime
Description: These experiments involved exposing transformed cells to hydroxyurea and nocodazole which can delay mitosis in different ways. Hydroxyurea interferes with DNA synthesis at two levels: it inhibits ribonucleotide reductase, so limiting the supply of precursors for DNA synthesis, and it inhibits DNA ligase, an enzyme responsible for repairing nicks (single strand breaks) in the DNA backbone. In contrast nocodazole inhibits microtubule formation and thus primarily arrests cell growth by preventing the normal segregation of chromosomes during mitosis.

[2] = tested on: RAD54 promoter; assay: Fluorescence assay of yeast transformed with pWDH443 or pWDH444 (RAD54 promoter linked to S65T GFP), whole cells or cell extracts
Experimental: Light emitted by GFP at 511 nm (after excitation at 488 nm) from yeast cells transformed with pWDH443 and pWDH444 and expressing GFP was measured in a fluorimeter in the absence (controls) or presence of compounds known to induce DNA damage such as Methyl Methane Sulphonate (MMS). Samples were assayed as whole cells or as cell extracts.
Yeast strains Y485 and Y486 in haploid form or Y485/486 in diploid form were in this Example (see above).
A stationary phase culture of cells grown in SD medium was used as the inoculum source. Aliquots (30 μl) of cells were inoculated into 3 ml of SD in 15 ml test tubes. […] The tubes were incubated at 25° C. for 16 h on an orbital shaker at 120 rpm, then transferred to an ice-box whilst maintaining agitation. The cells were then transferred to 1.5 ml eppendorf tubes, harvested by centrifugation (10 s), washed twice in sterile distilled water, and resuspended in 250 μl extraction buffer.
(§1) For whole cell fluorescent measurements, the washed cells were transferred directly to cuvettes containing 2.75 ml sterile distilled water.
For cell extract studies, 100μl of 400–600nm diameter glass beads were added to the tubes of cells which were then placed in a BIO 101 Fastprep FP120 to mechanically disrupt the cells. Following centrifugation for 30 s, the supernatant was transferred to a clean tube. The pellet of beads was washed in a further 250 μl of extraction buffer and this was added to the supernatant from the previous extraction. 200 μl of the pooled extract in 300 μl of water was then transferred to a cuvette.
Fluorescence measurements were performed with a Perkin Elmer LS50 Fluorescence Spectrometer. The excitation and emission wavelengths were set to 488nm and 511 nm, respectively, with a slit width of 10 nm. To correct for variations in cell number/protein extraction efficiency, light absorption was recorded for each cuvette at either 600 nm (for whole cells) or 280 nm (for extracts). The fluorescence values obtained from the fluorometer were then divided by the absorption readings to give the “brightness value”, an arbitrary unit independent of sample concentration. Other data handling details are dealt with either in the text or in the […]

[3] = tested on: RAD54 promoter; assay: Whole cell GFP fluorescence of FF18984 transformed with yEGFP-444 or pWDH444; conditions: for Brightness (BU) + MMS, average: average of three; for Brightness (BU) + MMS: single measurements
Experimental: A stationary phase culture of cells grown in SD medium was used as the inoculum source. Aliquots (30 μl) of cells were inoculated into 3 ml of SD in 15 ml test tubes. Half of the tubes were then supplemented with 0.01% MMS (the remaining tubes left as controls). The tubes were incubated at 25° C. for 16 h on an orbital shaker at 120 rpm, then transferred to an ice-box whilst maintaining agitation. The cells were then transferred to 1.5 ml eppendorf tubes, harvested by centrifugation (10 s), washed twice in sterile distilled water, and resuspended in 250 μl extraction buffer.
as §1
Fluorescence measurements were performed with a Perkin Elmer LS50 Fluorescence Spectrometer. The excitation and emission wavelengths were set to 488nm and 511 nm, respectively, with a slit width of 10 nm. To correct for variations in cell number/protein extraction efficiency, light absorption was recorded for each cuvette at either 600 nm (for whole cells) or 280 nm (for extracts). The fluorescence values obtained from the fluorometer were then divided by the absorption readings to give the “brightness value”, an arbitrary unit independent of sample concentration. Other data handling details are dealt with either in the text or in the
The assessment of GFP fluorescence in whole cells was performed essentially as described in 1.2 (above).

[4] = tested on: RAD54 promoter; assay: Western blot of yeast protein extracts with anti-GFP antibody; conditions: yeast cells transformed with pWDH443 or pWDH444, induced with MMS
Description: Protein extracts from untransformed yeast cells and yeast cells transformed with both pWDH443 and pWDH444 were used in a Western blot analysis using anti-GFP antibody. GFP was not detected in untransformed cells and was only detected at low levels in uninduced transformed cells.

[5] = FF18984 transformed with pWDH444, whole cells
[6] = FF18984 transformed with yEGFP-444, whole cells

NC(=O)NO [hydroxyurea]
Induction of the GFP reporter gene [1]: no detectable induction of the GFP reporter gene

COS(C)(=O)=O [MMS, Methyl Methane Sulphonate]
Time after induction at which fluorescence began to increase ([2]; 0.05% MMS): one
Change in fluorescence (FIG. 10) ([2]; haploid Y486 transfected with pWDH444, cell extracts, 0.02% MMS): increase in fluorescence
Change in fluorescence (FIG. 10) ([2]; haploid Y486 transfected with pWDH444, cell extracts, 0.05% MMS): increase in fluorescence
Change in brightness relative to untransformed cells also exposed to MMS (FIG. 7) ([2]; pWDH443 transformed yeast Y485, Y486 and diploid Y485/486): increase in brightness
Change in fluorescence ([2]; pWDH443 transformed yeast Y485, Y486 and diploid Y485/486, 0.002% MMS): statistically significant increases in fluorescence
Change in fluorescence ([2]; pWDH443 transformed yeast Y485, Y486 and diploid Y485/486, 0.01% MMS): statistically significant increases in fluorescence
Change in fluorescence (FIG. 10) ([2]; untransformed Y486 cells, 0.02% MMS): no significant effect
Change in fluorescence (FIG. 10) ([2]; untransformed Y486 cells, 0.05% MMS): no significant effect
Brightness (BU) + MMS, average [3, 5]: average = 49 BU
Brightness (BU) + MMS [3, 5]: 45 BU and 54 BU and 48 BU
Brightness (BU) + MMS, average [3, 6]: average = 96.7 BU
Brightness (BU) + MMS [3, 6]: 100 BU and 97 BU and 93 BU
GFP antibody binding in Western blot [4]: considerable increase in GFP antibody binding

COC(=O)Nc1nc2ccc(C(=O)c3cccs3)cc2[nH]1 [nocodazole]
Induction of the GFP reporter gene [1]: no detectable induction of the GFP reporter gene
